Measured values reported in article PMC7601839, “Anti-Acne Effects of Cembrene Diterpenoids from the Cultured Soft Coral Sinularia flexibilis” (Marine Drugs, 2020).

Experiments:
[1] = tested on: A375 melanoma cells; set-up: method as in PMID 23880933; conditions: cited from earlier work
[2] = tested on: LPS-induced RAW 264.7 cells (NO production); assay: NO production (Griess) in LPS-induced RAW 264.7 cells; type: cell-based
Description: (§1) Anti-inflammatory effects were analyzed in RAW 264.7 cells, which were cultured in DMEM with 10% FBS, 1% L-glutamine, and 1% penicillin-streptomycin, and maintained at 37 °C in a 5% CO2 atmosphere. RAW 264.7 cells (4.0 × 10^5 cells/mL) were seeded in 96-well plates and co-treated with LPS (500 ng/mL) and test samples. After 24 h, NO production was determined by Griess reagent, and the absorption was detected at 530 nm. The percentage inhibition of NO production was presented as the anti-inflammatory activity. PGE2 concentrations in cell culture media were determined with a PGE2 enzyme-linked immunosorbent assay (ELISA) kit (Enzo Life Sciences, Farmingdale, NY, USA). The survival rate of RAW 264.7 cells was detected using an MTT assay.

[3] = tested on: iNOS; set-up: method as in PMID 23774887; conditions: LPS-stimulated RAW264.7 macrophage cells; cited from earlier work
[4] = tested on: RAW 264.7 cells; assay: Survival rate of RAW 264.7 cells by MTT assay; type: cell-based; conditions: LPS-induced RAW 264.7 cells, 24 h, 20 μM
Description: as §1

[5] = tested on: COX-2; set-up: method as in PMID 23774887; conditions: LPS-stimulated RAW264.7 macrophage cells; cited from earlier work
[6] = tested on: iNOS; set-up: method as in PMID 23675440; conditions: LPS-stimulated murine macrophages; cited from earlier work
[7] = tested on: COX-2; set-up: method as in PMID 23675440; conditions: LPS-stimulated murine macrophages; cited from earlier work
[8] = tested on: HaCaT cells; conditions: 20 nM, 48 h
Description: (§2) HaCaT cells (10^5 cells/mL) were seeded in 96-well plates and co-treated with testosterone (5 μg/mL) or DHT (5 μg/mL) and test samples with no cytotoxicity for 48 h [2, 25, 26]. Cell proliferative activity was detected by an MTT assay.

[9] = tested on: HaCaT cells; assay: cells; conditions: Homo sapiens, read-out: HaCaT cell viability
Description: as §2

In the case of sinulariolide [SC-4], the “proliferation and migration of A375 melanoma cells” value [1] is listed as “inhibits the proliferation and migration”, the “inhibitory effects on NO expression” value [2] is listed as “no inhibitory effects” and the “NO Inhibition (%)” value ([2]; 24 h, 20 μM) is listed as −4.3 ± 1.6%. For the same molecule, the “accumulation of the proinflammatory iNOS protein” value [3] was “significantly inhibit” and the “Cell Viability (%)” value [4] was 98.8 ± 1.2%.
In the case of `C=C1C(=O)O[C@]2(C)CC[C@@H]1C[C@@H]1O[C@@]1(C)CC/C=C(\C)CC[C@H]2OC(C)=O` [Ya-s11, 11-Episinulariolide acetate], the “accumulation of COX-2 protein” value [5] is listed as “could reduce”, the “accumulation of the proinflammatory iNOS protein” value [3] is listed as “significantly inhibit” and the “expression of induced nitric oxide synthase (iNOS)” value [6] is listed as “inhibits the expression”. For the same molecule, the “expression of cyclooxygenase (COX)-2” value [7] was “inhibits the expression”.
For `C[C@]12CCC(=O)C[C@@H]1CC[C@@H]1[C@@H]2CC[C@]2(C)[C@@H](O)CC[C@@H]12` [DHT, dihydrotestosterone], the HaCaT cell proliferation [8] was “significantly induced”, the viability at 0.1 µg/mL [9] was 97.6% and the viability at 0.5 µg/mL [9] was 103%. It also gave a viability at 1 µg/mL [9] of 105% and a viability at 5 µg/mL [9] of 118%.
For `C[C@]12CC[C@H]3[C@@H](CCC4=CC(=O)CC[C@@]43C)[C@@H]1CC[C@@H]2O` [testosterone], the HaCaT cell proliferation [8] was “significantly induced”.
